# Patent publication US8883798B2, “Pyrimidine compounds inhibiting the formation of nitric oxide and prostaglandin E2, method of production thereof and use thereof” (Ustav Organicke Chemie a Biochemie Akademie Ved CR, V.V.I., priority 2011, dated 2014)
# Experiments:
# [1] = tested on: human umbilical vein endothelial cells (HUVEC); test: Tube formation assay of HUVEC on Matrigel (in vitro angiogenesis); format: cell-based; conditions: 8 h
# Excerpt: This so called “Tube Formation Assay” is a method based on the ability of endothelial cells to form capillary-like tubular structures when cultured on Matrigel™ (a gel of basement membrane extract—their natural substrate). The process of capillary-like tube formation includes endothelial cell attachment, migration, and differentiation into tubules. In this experiment, treatment with tested compounds started at the time of seeding HUVEC onto Matrigel and the extent of tubule development was observed after an 8 h time period. Disruption of tube formation was then assessed through observation of the tubular network and direct comparison to solvent-only controls. The quantitative and qualitative measurement of tubular network complexity was performed using web-based S.CORE imaging software and expressed by means of number of tubes, their total length, quality, number of branching points, etc. All these parameters were integrated into “tube formation index” which corresponds to the degree of complexity of tubular network. […] At a 10 μmol/L concentration, compound 23 reduced tube formation by >90%. […] Apoptosis in HUVECs (at ˜70% confluency) treated with or without varying concentrations (relevant for the tube formation assay) of tested substances was assessed by a combination of Annexin V and JC-1 staining. After 8 h of these treatments, cells were collected, and the cell population undergoing apoptosis was identified by double-parameter flow cytometry using annexin V and the vital dye propidium iodide (PI). Mitochondrial membrane potential in treated endothelial cells was measured using the lypophilic probe JC-1, which aggregates in healthy mitochondria and fluoresces red, but diffuses in the cytoplasm and fluoresces green upon mitochondrial damage. In both cases, quantification of apoptotic cells were conducted in BD FACSDiva software.
# [2] = tested on: production of prostaglandin E2 (PGE2); test: Production of prostaglandin E2 (PGE2) in cultures of mouse peritoneal cells stimulated with LPS (ELISA kit); format: cell-based, mice; conditions: Table 3A, substance 50 μmol·l^−1, 6 h
# Method in brief: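 C57BL/6 mouse peritoneal cells (3×10^6/mL) stimulated with LPS (10 ng/mL). PGE2 measured by ELISA.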
# [3] = tested on: production of nitric oxide (NO); test: Production of nitric oxide (NO) in cultures of mouse peritoneal cells stimulated with IFN-γ plus LPS (Griess reagent); format: cell-based, mice; conditions: Table 3A; substance 50 μmol·l^−1; IFN-g plus LPS; 24 h
# Method in brief: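 C57BL/6 mouse peritoneal cells (2×10^6/mL) stimulated with IFN-γ (5000 pg/mL) plus LPS (100 pg/mL), compounds at 50 μmol·l^−1. Nitrite measured by Griess reagent after 24 h, expressed as % of stimulated control (set 100%); IC50 is concentration reducing NO by 50%.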
# HUVEC = HUVEC cell proliferation (XTT assay); format: cell-based, human; conditions: 10 to 50 μmol/L, 8 hours
# peritoneal cells of mice = test: Cell viability of mouse peritoneal cells (WST-1 kit); format: cell-based; conditions: Table 3A, substance 50 μmol·l^−1, 24 h
# Method in brief: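 C57BL/6 mouse peritoneal cells (1×10^6/mL) cultured 24 h with compounds at 50 μmol·l^−1. Viability read with WST-1 tetrazolium salt and expressed as percent of untreated control cells (100%).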
smiles,measurement,setting,value
CCCCc1c(Cl)nc(N=CN(C)C)nc1Cl [Substance 19],Effect on tube formation,[1]; 10 μmol/L,no inhibitory activity was detectable
same,Effect on tube formation,[1]; 25 μmol/L,Partial differentiation
same,Capillary tube formation,[1],inhibited capillary tube formation in a dose dependent manner
same,Production of prostaglandins in % of the controls,[2],14.93 ± 3.11 % of the controls
same,Production of nitric oxide in % of the controls,[3],2.99 ± 0.53 % of the controls
same,HUVEC cell proliferation,HUVEC,did not influence HUVEC cell proliferation
same,Cell viability in % of the controls,peritoneal cells of mice,123.21 ± 21.43 % of the controls
